{"source": "patent US20240158384A1", "about": "“CB2 RECEPTOR AGONISTS” (The Board of Trustees of the Leland Stanford Junior …, priority 2020, published 2024)", "key": {"human CB2R [1]": {"molecular_target": "T1, human CB2R (Homo sapiens, UniProt P34972)", "T1 sequence (P34972 whole entry)": "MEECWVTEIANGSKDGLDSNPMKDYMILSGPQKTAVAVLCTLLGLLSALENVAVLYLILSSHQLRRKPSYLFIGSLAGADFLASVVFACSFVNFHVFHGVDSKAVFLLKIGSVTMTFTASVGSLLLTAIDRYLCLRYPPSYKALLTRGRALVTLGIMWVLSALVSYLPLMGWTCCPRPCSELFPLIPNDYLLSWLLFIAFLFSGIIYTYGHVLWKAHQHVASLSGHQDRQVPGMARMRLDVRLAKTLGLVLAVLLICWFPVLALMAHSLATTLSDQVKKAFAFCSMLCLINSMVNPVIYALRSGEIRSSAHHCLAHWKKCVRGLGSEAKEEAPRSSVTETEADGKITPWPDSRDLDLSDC", "experiment": "PathHunter β-Arrestin assay, beta-arrestin recruitment", "type": "cell-based", "conditions": "for Activation of beta-arrestin pathway (in words): hCB2, CP-55940 as control", "experimental": "The assay was performed using the PathHunter β-Arrestin human CB2 cell line (catalog no. 93-0706C2) and using the PathHunter® β-Arrestin Assay for GPCR Cell Lines (source: DiscoveRx, Fremont, CA, USA), according to the manufacturer's protocol (https://www.discoverx.com/tools-resources/document-resource-library/documents/user-manual-pathhunter-% CE % B2-arrestin-assay-for-gpcr-c). Briefly, cells were seeded at a density of 10,000 cells per well in a 96-well plate and incubated overnight (16-18 h) in a humidified atmosphere at 37° C. and 5% C02. Agonist prepared in PBS was added and the assay plate incubated for 3 h in a humidified atmosphere at 37° C. and 5% C02. Working detection solution was added and the plate was incubated for 1 h in the dark at room temperature. Chemiluminescence was measured on an CLARIOstar plate reader (BMG LABTECH Inc., Cary, NC, USA)."}, "human CB2R [2]": {"molecular_target": "T1, human CB2R", "experiment": "cAMP Hunter eXpress GPCR assay, human CB2: inhibition of forskolin-stimulated cAMP in CHO cells", "type": "cell-based", "design": "host or cells: CHO cells", "experimental": "Briefly, cAMP Hunter eXpress Cells were seeded 18-24 h prior to the in a 96-well tissue culture treated assay plate and incubated in 5% CO2 at 37° C. in a humidified incubator. After removal of cell media, agonist compound and forskolin prepared in cell assay buffer was added and incubated at 37° C. The CB1 cAMP assay was stimulated with 20 μM final concentration of forskolin with 40 minutes incubation time. The CB2 cAMP assay was stimulated with 25 μM final concentration of forskolin with 35 minutes incubation time. The assay was stopped by incubation with antibody and working solution for 1 h at room temperature. After over 3 h incubation at room temperature in the dark with enzyme acceptor solution, chemiluminescence was measured on a CLARIOstar plate reader (BMG LABTECH Inc., Cary, NC, USA)."}, "Male C57Bl6J mice": {"system": "Male C57Bl6J mice", "experiment": "Spontaneous locomotor activity in activity chamber", "type": "in vivo, mouse", "conditions": "mouse, in vivo, ip"}, "[3]": {"system": "mice dosed with LPS and ATP", "experiment": "LPS model of systemic inflammation, Luminex cytokines in plasma and brain homogenate", "type": "in vivo, mouse", "conditions": "0.5 mg/kg ip daily for 10 days, LPS 100 ug/kg ip, ATP 50 mg/kg ip", "experimental": "Mice were dosed with Compound 24 (0.5 mg/kg ip) or vehicle daily for 10 days. Lipopolysaccharide (LPS) (100 ug/kg ip) was given 1 hour after 10th dose on final day. ATP (50 mg/kg ip) was given 2 hours after LPS and then mice were sacrificed 30 minutes after ATP (2.5 hours after LPS). Multiplex tissue cytokines were analyzed in plasma and brain homogenate from all brain regions dissected above using a Luminex 38-plex mouse cytokine assay as previously described for aged versus young mice (Evans et al. Neurobiol Aging 2021; 106:241-56). The Luminex assay was performed according to the manufacturer's instructions. Briefly, tissue samples were homogenized in RIPA buffer containing proteinase inhibitor by pulling tissue through a 23 g needle (15×) and then sonicating for 3×3 second pulses. Homogenate was spun at 14,000 g for 10 minutes, and protein concentrations were determined by the Pierce BCA assay. Samples were diluted to a common concentration of 6 μg/μL. Plasma samples were diluted 1:3. Plasma and brain homogenate samples were run in duplicate on a 96 well plate alongside standard curve and quality control calibration samples."}, "[4]": {"system": "Male C57BL/6J mice brain tissue", "experiment": "Brain cytokine gene expression (TaqMan qPCR)", "type": "in vivo, mouse", "conditions": "0.1 and 0.3 mg/kg or 1, 2, and 3 mg/kg", "experimental": "Male C57BL/6J mice, 6-8 weeks old were dosed on Day 1,2,3,4,5, and 10, or 11 with vehicle or CBS-159 at 0.1 and 0.3 mg/kg or 1, 2, and 3 mg/kg. Mice were terminated on Day 10 or 11, 3.5 hours after dosing vehicle or CBS-159. Total RNA was isolated from brain tissue dissections using the RNeasy Lipid Tissue Mini Kit (Qiagen) (see Evans et al. Neurobiol. Dis. 2020, 146:105089). One microgram of total RNA was transcribed into cDNA (Superscript III, Invitrogen). PCR was performed in triplicate using TaqMan gene expression master mix (Applied Bio-systems) and validated TaqMan gene expression assays, Tnfa (Mm00443258_m1), IL1β (Mm00434228_m1), IL6 (Mm00446190_m1),), IL18 (Mm00434226_m1), and glyceraldehyde-3-phosphate dehydrogenase (Gapdh; Mm99999915_g1). Amplification was performed using a StepOnePlus system (Applied Biosystems). Fold changes of expression relative to control were determined after normalization to Gapdh. Relative quantification and old change were calculated by the comparative CT method (Schmittgen and Livak, Nat. Protoc. 2008, 3(6):1101-1108)."}, "Heroin SA-trained rats": {"system": "Heroin SA-trained rats", "experiment": "Heroin self-administration model", "type": "in vivo, rat", "conditions": "treated daily during 21 days of abstinence, 3 mg/kg i.p., vs vehicle", "experimental": "In the heroin SA model, rats were surgically implanted with a catheter that connects to their heart. […] They learned to press an active lever to get an infusion of heroin through their implanted tube. […] Heroin SA-trained rats underwent 21 days of abstinence after training. […] Heroin-seeking behaviors were assessed before and after the abstinence period."}, "heroin-addicted mice": {"system": "heroin-addicted mice", "experiment": "Naloxone-precipitated withdrawal model", "type": "in vivo, mouse", "conditions": "3 mg/kg i.p., jumping 1 minute after naloxone 50 mg/kg", "experimental": "The naloxone-precipitated withdrawal model uses an opioid receptor antagonist, naloxone, to trigger highly aversive withdrawal symptoms (e.g., jumping, burrowing, “wet-dog” shakes, hyperreactivity) in heroin-addicted mice. Signs such as jumping can be quantified after administration of naloxone (“naloxone precipitated withdrawal”). […] On Day 7, 60 minutes after a final drug and heroin dose (40 mg/kg), naloxone was administered (50 mg/kg), and jump count measured for 1-15 minutes."}, "[5]": {"conditions": "cAMP assay, CP-55940 as full agonist control"}}, "note": "“Also recorded” adds a separate entry of the source."}
{"molecule": "CN1CCN(c2nccc3c2nc(-c2ccccc2Cl)n3C2CCOCC2)CC1", "note": "[Compound 1, 2-(2-chlorophenyl)-4-(4-methylpiperazin-1-yl)-1-(tetrahydro-2H-pyran-4-yl)-1H-imidazo[4,5-c]pyridine]", "values": [{"measurement": "melting point", "value": "231 to 235", "unit": "°C"}]}
{"molecule": "Cc1cc2c(nc(-c3ccccc3Cl)n2C2CCOCC2)c(N2CCN(C)CC2)n1", "note": "[Compound 2, 2-(2-chlorophenyl)-6-methyl-4-(4-methylpiperazin-1-yl)-1-(tetrahydro-2H-pyran-4-yl)-1H-imidazo[4,5-c]pyridine]", "values": [{"measurement": "melting point", "value": "248 to 252", "unit": "°C"}]}
{"molecule": "CC(C)(C)c1cc(NC(=O)N2CCCN2c2ccc(C(F)(F)F)cn2)on1", "note": "[Compound 3, N-(3-(tert-butyl)isoxazol-5-yl)-2-(5-(trifluoromethyl)pyridin-2-yl)pyrazolidine-1-carboxamide]", "values": [{"measurement": "melting point", "value": "184 to 188", "unit": "°C"}]}
{"molecule": "CC(C)(C)c1cc(NC(=O)N2CCCN2c2ccc(C(F)(F)F)cc2)on1", "note": "[Compound 11, N-(3-(tert-butyl)isoxazol-5-yl)-2-(4-(trifluoromethyl)phenyl)pyrazolidine-1-carboxamide]", "values": [{"measurement": "EC50", "setting": "human CB2R [1]", "value": "> 1000", "unit": "nM"}, {"measurement": "Activation of beta-arrestin pathway (in words)", "setting": "human CB2R [1]", "value": "weakly/partially activates the beta-arrestin pathway"}, {"measurement": "Emax", "setting": "human CB2R [1]; read-out: B-arrestin Maximum Activation", "value": 35.5, "unit": "%"}, {"measurement": "melting point", "value": "211 to 215", "unit": "°C"}, {"measurement": "Emax", "setting": "human CB2R [2]; CHO, read-out: CB2 Maximum Activation", "value": 114, "unit": "%"}, {"measurement": "EC50", "setting": "human CB2R [2]; Table 3; cAMP assay, 25 μM forskolin, 35 minutes; read-out: CB2 EC50", "value": 75.2, "unit": "nM"}, {"measurement": "CB2 agonist character (in words)", "setting": "human CB2R [2]; [5]", "value": "full agonist"}, {"measurement": "Selectivity for CB2 over CB1 (in words)", "setting": "human CB2R [2]; cAMP assays hCB1 vs hCB2", "value": "selective for CB2 over CB1"}]}
{"molecule": "O=C(Nc1cc(C2CC2)no1)N1CCCN1c1ccc(C(F)(F)F)cc1", "note": "[Compound 16, N-(3-cyclopropylisoxazol-5-yl)-2-(4-(trifluoromethyl)phenyl)pyrazolidine-1-carboxamide]", "values": [{"measurement": "Activation of beta-arrestin pathway (in words)", "setting": "human CB2R [1]", "value": "almost no beta-arrestin activity"}, {"measurement": "CB2 agonist character (in words)", "setting": "human CB2R [2]; [5]", "value": "partial agonist of CB2"}, {"measurement": "Selectivity for CB2 over CB1 (in words)", "setting": "human CB2R [2]; cAMP assays hCB1 vs hCB2", "value": "selective for CB2 over CB1"}]}
{"molecule": "CC(C)(C)c1cc(NC(=O)N2CCCN2c2cc(F)cc(F)c2)on1", "note": "[Compound 19, N-(3-(tert-butyl)isoxazol-5-yl)-2-(3,5-difluorophenyl)pyrazolidine-1-carboxamide]", "values": [{"measurement": "melting point", "value": "181 to 185", "unit": "°C"}]}
{"molecule": "CC(C)(C)c1cc(NC(=O)N2CCCN2c2ccc(F)cc2)on1", "note": "[Compound 21, N-(3-(tert-butyl)isoxazol-5-yl)-2-(4-fluorophenyl)pyrazolidine-1-carboxamide]", "values": [{"measurement": "melting point", "value": "190 to 194", "unit": "°C"}]}
{"molecule": "CC(C)(CO)c1cc(NC(=O)N2CCCN2c2ccc(C(F)(F)F)cn2)on1", "note": "[Compound 24, N-(3-(1-hydroxy-2-methylpropan-2-yl)isoxazol-5-yl)-2-(5-(trifluoromethyl)pyridin-2-yl)pyrazolidine-1-carboxamide]", "values": [{"measurement": "Activation of beta-arrestin pathway (in words)", "setting": "human CB2R [1]", "value": "weak beta-arrestin activity"}, {"measurement": "Distance moved / spontaneous locomotor activity", "setting": "Male C57Bl6J mice", "value": "does not affect spontaneous locomotor activity in mice"}, {"measurement": "Anti-inflammatory function in LPS model of systemic inflammation", "setting": "[3]", "value": "has anti-inflammatory activity; also recorded: displays anti-inflammatory function in a LPS model of systemic inflammation"}, {"measurement": "Anti-inflammatory function in the brain", "setting": "[4]", "value": "displays anti-inflammatory function in the brain"}, {"measurement": "CB2 agonist character (in words)", "setting": "human CB2R [2]; [5]", "value": "potent agonists of CB2"}, {"measurement": "Selectivity for CB2 over CB1 (in words)", "setting": "human CB2R [2]; cAMP assays hCB1 vs hCB2", "value": "selective for CB2 over CB1"}]}
{"molecule": "CC(C)(C)c1cc(NC(=O)N2CCCC2c2ccc(C(F)(F)F)cc2)no1", "note": "(stereo not drawn) [Compound 26, N-(5-(tert-butyl)isoxazol-3-yl)-2-(4-(trifluoromethyl)phenyl)pyrrolidine-1-carboxamide]", "values": [{"measurement": "melting point", "value": "175 to 179", "unit": "°C"}]}
{"molecule": "CC(C)(C)c1cc(NC(=O)N2CCC(=O)N2c2ccc(C(F)(F)F)cc2)on1", "note": "[Compound 29, N-(3-(tert-butyl)isoxazol-5-yl)-3-oxo-2-(4-(trifluoromethyl)phenyl)pyrazolidine-1-carboxamide]", "values": [{"measurement": "melting point", "value": "186 to 190", "unit": "°C"}]}
{"molecule": "CC(C)(C)c1cc(NC(=O)N2CCCN2)on1", "note": "[Compound 31, N-(3-(tert-butyl)isoxazol-5-yl)pyrazolidine-1-carboxamide]", "values": [{"measurement": "melting point", "value": "175 to 179", "unit": "°C"}]}
{"molecule": "Cc1nc(N2CCN(C)CC2)c2nc(-c3ccccc3Cl)n(C3CCOCC3)c2n1", "note": "[LY2828360, reference compound]", "values": [{"measurement": "Activation of beta-arrestin pathway (in words)", "setting": "human CB2R [1]", "value": "weakly/partially activates the beta-arrestin pathway"}, {"measurement": "Emax", "setting": "human CB2R [1]; read-out: CB2 Maximum Activation", "value": 51.7, "unit": "%"}, {"measurement": "Abstinence-induced heroin seeking", "setting": "Heroin SA-trained rats", "value": "less abstinence-induced heroin seeking than the vehicle-treated rats"}, {"measurement": "Negative effects of heroin withdrawal (jumping behavior after naloxone)", "setting": "heroin-addicted mice", "value": "reduce the negative effects of heroin withdrawal"}, {"measurement": "Emax", "setting": "human CB2R [2]; CHO; read-out: CB2 Maximum Activation", "value": 52.6, "unit": "%"}]}
